# According to patent publication US20090036498A1, “FLY CONTROL METHOD” (priority 2007, published 2009):
# How the values were obtained:
# [1] = system: Newly emerged larvae of blowfly, Lucilica sericata; experiment: Blowfly larvae on filter paper discs with test compound mixed in dried blood bovine serum, mortality; type: in vivo; conditions: Lucilia sericata, assessed at 24 hours, four replicates per data point
# Description: L. serricata (Insect; Blowfly) Larvae.
# Test compound (3-bromo-1-(3-chloro-2-pyridinyl)-N-[4-cyano-2-methyl-6-[(methylamino)-carbonyl]phenyl]-1H-pyrazole-5-carboxamide) was mixed with dried blood bovine serum and placed on filter paper discs. Newly emerged larvae of blowfly, Lucilica sericata were added to the filter paper, which were ingested by larvae. Activity may occur through both feeding and contact. Four replicates were run per data point. Activity was assessed at 24 hours.
# [2] = system: Adult L. serricata (blowflies); experiment: Test A: adult blowflies on blood agar containing test compound, number of dead flies scored; type: in vivo, Lucilia sericata; conditions: 4 flies in test; for Number dead flies at 2 hours: scored at 2 hours; for Number dead flies at 4 hours: scored at 4 hours; for Number dead flies at 24 hours: scored at 24 hours
# Description: Adult L. serricata (blowflies): Adult flies are placed on beds of blood agar (in individual test wells; 4 flies per well) in which test compound (3-bromo-1-(3-chloro-2-pyridinyl)-N-[4-cyano-2-methyl-6-[(methylamino)carbonyl]phenyl]-1H-pyrazole-5-carboxamide) was dissolved/suspended prior to hardening of agar. Flies can take up test compound by both ingestion and contact. Assays are scored by number of dead flies at 2 hours, 4 hours, and 24 hours.
SMILES,mortality at 0.5 ppm [1] [%],Number dead flies at 2 hours ([2]; Rate 1 ppm in blood agar),Number dead flies at 4 hours ([2]; Rate 1 ppm in blood agar),Number dead flies at 24 hours ([2]; Rate 1 ppm in blood agar),Number dead flies at 2 hours ([2]; Rate 10 ppm in blood agar),Number dead flies at 4 hours ([2]; Rate 10 ppm in blood agar),Number dead flies at 24 hours ([2]; Rate 10 ppm in blood agar),Number dead flies at 2 hours ([2]; Rate 25 ppm in blood agar),Number dead flies at 4 hours ([2]; Rate 25 ppm in blood agar),Number dead flies at 24 hours ([2]; Rate 25 ppm in blood agar),Number dead flies at 2 hours ([2]; Rate 50 ppm in blood agar),Number dead flies at 4 hours ([2]; Rate 50 ppm in blood agar),Number dead flies at 24 hours ([2]; Rate 50 ppm in blood agar),Number dead flies at 2 hours ([2]; Rate 100 ppm in blood agar),Number dead flies at 4 hours ([2]; Rate 100 ppm in blood agar),Number dead flies at 24 hours ([2]; Rate 100 ppm in blood agar)
"N#Cc1nn(-c2c(Cl)cc(C(F)(F)F)cc2Cl)c(N)c1[S+]([O-])C(F)(F)F (stereo not drawn) [Fipronil, (.+−.)-5-amino-1-(2,6-dichloro-α,α,α-triflu-oro-p-tolyl)-4-trifluoromethyl-sulphinylpyrazol-3-carbonitrile, reference compound]",90 to 100,,,,,,,,,,,,,,,
CCOP(=S)(OCC)Oc1nc(Cl)c(Cl)cc1Cl [Chloropyriphos],,0,1,4,1,4,4,3,4,4,4,4,4,4,4,4
"CNC(=O)c1cc(C#N)cc(C)c1NC(=O)c1cc(Br)nn1-c1ncccc1Cl [Test compound, 3-bromo-1-(3-chloro-2-pyridinyl)-N-[4-cyano-2-methyl-6-[(methylamino)-carbonyl]phenyl]-1H-pyrazole-5-carboxamide]",90 to 100,0,0,0,0,0,1,0,0,2,0,0,3,0,0,3
